One data set has as its target T1, CYP3A4 (Homo sapiens, UniProt P08684).
T1 construct: purchased Cypex, Dundee, UK; host or cells: bacterial membranes (bactosomes)
The experiment in a line: Fluorescence-based CYP inhibition, CYP3A4. The data set is classed as in vitro ADME. As for the experimental part:
4.7 F lu or e s ce nce-based CYP I nhibition usin g recombinantly expressed CYP b actosomes Fl uorogeni c C YP i nhi bi t i on s t udi es w ere c ondu ct ed at 37 °C i n 96-well, flat-bot t om, cl ear p ol y s t y rene pl at es. I ncubat i on mi xt ures cont ai ni ng Eas y C YP bact os omes (1000 pmol /ml , 10 mg /ml C y pex TM, Dundee, UK), fl uorogeni c substrate (Cypex TM) and 50 mM potas s i um phosphat e buffer (p H 7. 4) w er e prepared at t he fol l ow i ng fi nal concent rat i ons : C YP1A2, 5 pmol /ml + 35 µ M et hox y res orufi n (ER) ; CYP2C9, 10 pm ol/ml + 30 µM 7-methoxy-4-(tri fl uo romethy l )-coumari n (MFC ); C YP 2C 19, 5 pm ol /ml + 25 µM 3-cy ano-7-eth oxycoumarin (CEC); C YP 2D 6, 10 pmol /ml + 6 µM 7-meth oxy-4-(ami nomethy l )- coumari n (MAMC ); C YP 3A4, 10 pmol /ml + 1 µM diethoxyfluorescein (DEF) and 10 pmol /ml + 15 µM 7-benz y l ox y qui nol i ne (BQ ). […] 0125 ( 1A2 and 2C 9 onl y ) o r 0. 025 mg /ml (al l ot her i s oforms ). […] Positive control inhibitor, miconazole, was prepared as a 500 µM s olution in DMSO and similarly diluted.
For eac h i sofo rm, 2 20 µl of i ncubati on mi x was added to each wel l of a 96-well, flat-bot t om, cl ear pol y s t y rene pl at e. Al i quot s (5 µl) of each compound 5 conce ntrati on was then mi x ed wi th 220 µl of the incubation mix and pre-incubated at 37 °C for 5 min (final test compound concentration range: […]

Data set [1] addresses human ether-à-go-go related gene (hERG) K+ channel (Homo sapiens, UniProt Q12809). The experiment in a line: hERG K+ channel assay (IonWorks patch clamp). Format: cell-based.
Data set [2] in a line: Toxicity in mice at higher doses. Conditions: higher doses (50 mg/kg orally). Format: in vivo.
For a further data set, the system named is Pf(K1). The experiment in a line: Drug resistant P. falciparum K1, [3H]-hypoxanthine incorporation. Format: cell-based. Conditions: Plasmodium falciparum, chloroquine-resistant. From the text:
(§1) 3.2 Cytotoxicity Studies (Dundee)
(§2) In vi t ro cy totox i ci ty s tudies can be ca rri ed out us i ng Hep G 2 (Human C aucas i an hepatocy te ca rci noma, ECACC cat. no. 850 114 30) us ed as i ndi cators f or g eneral mammal i an cel l tox i ci ty . […]
(§3) 3.3 In vitro Cell Assay D ata Analysis (Du ndee) […]
(§4) as 0%. Qual i ty control c ri teri a for passi ng pl ates were as fol l ow s : Z’ > 0.
(§5) < 15 . T he f ormula used to calculate Z’ is 1- 3´ (St D e v _ hi gh + St D e v_ low) . […]
(§6) Al l EC50 Curve fitti ng was undertaken usi ng XLFi t versi on 4.2 usi ng Model 205 wi th the foll owi ng 4 paramet ri c equat i on: A + (?-A) ,where A=% i nhi bi ti on at bo ttom, B=% i nhi bi ti on at top, C= EC , […]
(§7) D= slope, x= inhibitor concentration a nd y= % inhibition. […]
(§8) was fixed to 100 only when at least 50% of inhibition was reached. […]
(§9) Hoffmann-La Ro che Ltd) a nd resi stant strai ns K1 and TM90C2B (fr om the Malaria Research an d Reference Reag ent Res ou rce C enter, accu rate d es cri pti ons of the g eneti c backg roun ds of thes e strains can be obtained at http://www.beiresources.org) were cultivated in a variation of the medium prev i ous l y des cri bed (5, 6), c onsi sti ng of RPMI 16 40 su ppl emented wi th 0.5% ALBUMAX® II, 25 m M Hepes , 25 mM NaHC O3 (pH 7. […] The re s ul t s were recorded and expressed as a percentage of the untreated controls. […]

A further data set concerns Pf(NF54). The experiment in a line: Drug-sensitive P. falciparum NF54, [3H]-hypoxanthine incorporation. The data set is classed as cell-based. Conditions: Plasmodium falciparum, drug-sensitive strain.
Description: as §1, §2, §3, §4, §5, §6, §7, §8, §9

In a further data set the test system is P. falciparum. The experiment in a line: In vivo antimalarial efficacy in P. falciparum-infected SCID mice engrafted with human erythrocytes. Conditions: SCID mouse, orally once a day for 4 d.

Molecules are shown by their SMILES. Where only a bound is given, the exact number is not on record here.

For orientation: IC50 means the midpoint of a concentration-inhibition curve. Lower therefore signals inhibition by little substance. One may read the EC50 as the concentration needed to bring the measured effect to its halfway point. Higher therefore signals a less potent agent.

human ether-à-go-go related gene (hERG) K+ channel, sequence (Q12809 whole entry): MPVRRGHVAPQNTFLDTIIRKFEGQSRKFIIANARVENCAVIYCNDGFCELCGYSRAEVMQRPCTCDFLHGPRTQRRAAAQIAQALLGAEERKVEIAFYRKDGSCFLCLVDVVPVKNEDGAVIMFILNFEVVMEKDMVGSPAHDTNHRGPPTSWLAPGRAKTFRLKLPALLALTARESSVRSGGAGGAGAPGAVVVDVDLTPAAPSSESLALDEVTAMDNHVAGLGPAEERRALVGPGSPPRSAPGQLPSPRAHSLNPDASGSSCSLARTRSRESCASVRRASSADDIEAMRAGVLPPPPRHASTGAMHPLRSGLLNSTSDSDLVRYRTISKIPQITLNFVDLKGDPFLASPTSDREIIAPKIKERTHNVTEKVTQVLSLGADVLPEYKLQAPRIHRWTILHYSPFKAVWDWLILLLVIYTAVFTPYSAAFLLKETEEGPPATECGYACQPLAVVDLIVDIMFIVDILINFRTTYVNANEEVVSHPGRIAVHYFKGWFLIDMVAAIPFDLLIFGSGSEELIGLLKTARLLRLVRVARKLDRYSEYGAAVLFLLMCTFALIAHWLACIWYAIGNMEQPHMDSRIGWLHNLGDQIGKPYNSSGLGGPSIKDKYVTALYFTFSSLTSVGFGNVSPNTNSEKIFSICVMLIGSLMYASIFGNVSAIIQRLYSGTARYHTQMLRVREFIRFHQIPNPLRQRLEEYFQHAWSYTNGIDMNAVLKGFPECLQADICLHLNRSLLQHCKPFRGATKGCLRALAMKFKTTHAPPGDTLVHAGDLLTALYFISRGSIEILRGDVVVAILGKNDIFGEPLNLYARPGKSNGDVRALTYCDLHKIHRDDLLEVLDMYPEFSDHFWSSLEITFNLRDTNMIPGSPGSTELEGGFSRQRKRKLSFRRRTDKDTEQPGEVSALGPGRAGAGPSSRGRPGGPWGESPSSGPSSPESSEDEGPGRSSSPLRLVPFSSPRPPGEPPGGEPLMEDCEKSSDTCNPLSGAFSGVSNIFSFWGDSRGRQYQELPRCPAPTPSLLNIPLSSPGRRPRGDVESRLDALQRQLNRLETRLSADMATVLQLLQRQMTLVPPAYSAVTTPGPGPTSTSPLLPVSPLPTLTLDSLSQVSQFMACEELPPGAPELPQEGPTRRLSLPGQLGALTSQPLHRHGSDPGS
T1 sequence (P08684 whole entry): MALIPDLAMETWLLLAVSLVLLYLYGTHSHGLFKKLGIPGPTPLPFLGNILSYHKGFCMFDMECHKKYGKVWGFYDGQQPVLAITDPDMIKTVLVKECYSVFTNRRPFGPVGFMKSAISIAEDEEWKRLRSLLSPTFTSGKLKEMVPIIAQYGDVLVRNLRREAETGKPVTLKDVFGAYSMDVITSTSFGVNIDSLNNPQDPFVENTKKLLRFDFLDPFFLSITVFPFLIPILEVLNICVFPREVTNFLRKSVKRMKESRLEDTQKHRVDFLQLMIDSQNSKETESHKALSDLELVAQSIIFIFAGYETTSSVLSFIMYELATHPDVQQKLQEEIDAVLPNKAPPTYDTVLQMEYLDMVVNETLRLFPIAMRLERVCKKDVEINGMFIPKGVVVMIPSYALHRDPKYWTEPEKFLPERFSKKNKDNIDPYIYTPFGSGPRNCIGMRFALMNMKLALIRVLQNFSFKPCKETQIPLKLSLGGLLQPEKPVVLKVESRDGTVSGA

On to `O=C(NCC1(O)CCC(F)(F)CC1)c1cc(=O)c2cc(F)ccc2o1` [Compound 5], for which, at CYP3A4, the IC50 is > 10000 nM. Also, the EC50 is > 100000 nM in data set [1], 510 nM in the data set on Pf(K1) and 390 nM in the data set with Pf(NF54). Besides, in data set [2], the toxicity in mice result is recorded as “showed toxicity”. Also, in the data set on P. falciparum, the “AUCED90, estimated daily exposure in blood reducing parasitemia by 90% at day 5” value is 11,000 ng⋅h⋅ml^−1⋅d^−1. In the data set with P. falciparum, the “ED90, daily oral dose reducing parasitemia by 90% at day 5” value worked out at 1.5 mg⋅kg^−1.

(Values after PMC6452685, “Lysyl-tRNA synthetase as a drug target in malaria and cryptosporidiosis” (Proceedings of the National Academy of Sciences of the …, 2019).)
